Patent US7196105B2, “Treatment of human multiple myeloma by curcumin” (Research Development Foundation, priority 2002, dated 2007)
Entries after “also recorded” stand apart in the source; their conditions may differ.

Assays:
Type in all cases: cell-based, human
[1] = test system: CD138+ cells from multiple myeloma patients; assay: Viability of bone marrow CD138+ cells from multiple myeloma patients (MTT or trypan blue); settings: 24 h
Description: (§1) Briefly, cells (5000/well) were incubated in triplicate in a 96-well plate in the presence or absence of indicated test samples in a final volume of 0.1 ml for 24 h at 37° C. Thereafter, 0.025 ml of MTT solution (5 mg/ml in PBS) was added to each well. After a 2 h incubation at 37 ° C., 0.1 ml of extraction buffer (20% SDS, 50% dimethylformamide) was added. Incubation was continued for overnight at 37 ° C., and then the OD at 590 nm was measured using a 96-well multiscanner autoreader (Dynatech MR 5000), with extraction buffer as blank. Percent cell viability=(OD of the experiment samples/OD of the control)×100.

Bcl-2 = assay: Western blot for NF-κB-regulated gene product Bcl-2 in U266 cells; settings: curcumin 50 μM
Description: Sixty micrograms of cytoplasmic extracts were resolved on 10% SDS-PAGE gel, electrotransferred on a nitrocellulose membrane, and probed for the following: IκBα (FIG. 4A); Bcl-2 (FIG. 4B); Bcl-xL (FIG. 4C) and cyclin D1 (FIG. 4D). The same blots were stripped and reprobed with anti-β-actin antibody to show equal protein loading (lower panel in each figure). FIG. 4E: […] U266, MM.1 or RPMI 8226 cells (1×10^7) were treated with curcumin ([…]) in 5 ml of medium for the indicated times. Supernatants were harvested and concentrated approximately 20×, and IL-6 was quantitated by an IL-6 ELISA kit. Values shown were normalized to 1 ml of un-concentrated supernatants. Thirty to fifty micrograms of cytoplasmic protein extracts prepared as described (Chaturvedi et al., 2000) were resolved on 10% SDS-PAGE gel. After electrophoresis, the proteins were electrotransferred to a nitrocellulose membrane, blocked with 5% nonfat milk, and probed with antibodies against either IkBa, phospho-IkBa, Bcl-2, Bcl-xL, or cyclin D1 (1:3000) for 1 h. Thereafter, the blot was washed, exposed to HRP-conjugated secondary antibodies for 1 h, and finally detected by chemiluminescence (ECL, Amersham Pharmacia Biotech., Arlington Heights, Ill.).

IκBα phosphorylation = assay: Western blot for phosphorylated IκBα in U266 cells; settings: curcumin 50 μM, time course
Description: FIG. 3A: Level of phosphorylated IκBα determined by Western blotting. FIG. 3B: Immunoprecipitated IκB kinase and kinase assay of IκB kinase activity (upper panel) or Western blotting for the analysis of total IKKα and IKKβ proteins in cytoplasmic extracts (lower panel). FIG. 3C: IκB kinase was immunoprecipitated and kinase assay was performed in the absence or presence of the indicated concentrations of curcumin (upper panel). Lower panel indicates the amount of GST-IκBα protein stained with Coomassie Blue in each well in the same dried gel. Thirty to fifty micrograms of cytoplasmic protein extracts prepared as described (Chaturvedi et al., 2000) were resolved on 10% SDS-PAGE gel. After electrophoresis, the proteins were electrotransferred to a nitrocellulose membrane, blocked with 5% nonfat milk, and probed with antibodies against either IkBa, phospho-IkBa, Bcl-2, Bcl-xL, or cyclin D1 (1:3000) for 1 h. Thereafter, the blot was washed, exposed to HRP-conjugated secondary antibodies for 1 h, and finally detected by chemiluminescence (ECL, Amersham Pharmacia Biotech., Arlington Heights, Ill.).

NF-κB = assay: Immunocytochemistry for NF-κB in bone marrow CD138+ cells from multiple myeloma patients; settings: patients #5, #9 and #10, 50 μM curcumin, 2 h
Description: The cells were fixed on slides by cytospin centrifugation and immuno-stained for NF-κB or STAT3. Red stain indicates specific staining for NF-κB or STAT3, whereas blue stain indicates the relative position of the nuclei in the corresponding view.
Red stain indicates the specific staining for NF-κB or STAT3 as indicated, whereas blue stain indicates the relative position of the nuclei in the corresponding view.
Untreated or treated multiple myeloma cells were plated on a poly-L-lysine-coated glass slide by centrifugation using a Cytospin 4 (Thermoshendon, Pittsburg, Pa.), air-dried for 1 h at room temperature, and fixed with cold acetone. After a brief washing in PBS, slides were blocked with 5% normal goat serum for 1 h and then incubated either with rabbit polyclonal anti-human NF-κB p65 antibody (SC-109; dilution, 1:100) or with anti-human STAT3 antibody (SC-482; dilution, 1:100). After overnight incubation, the slides were washed and then incubated with goat anti-rabbit IgG-Alexa 594 (A-11037; dilution, 1:100) for 1 h and counter-stained for nuclei with Hoechst (50 ng/ml) for 5 min. Stained slides were mounted with mounting medium (Sigma Colo.) and analyzed under an epifluorescence microscope (Labophot-2, Nikon, Tokyo, Japan). […]

caspase-7 = assay: Western blot for procaspase-7 (apoptosis); settings: U266, curcumin 50 μM, time course
Description: The cells were washed and total proteins were extracted by lysing the cells. Sixty microgram of extracts were resolved on 10% SDS-PAGE gel, electrotransferred to a nitrocellulose membrane, and probed with anti-procaspase-9 (FIG. 6C), anti-procaspase-7 (FIG. 6D), anti-PARP (FIG. 6E, upper panel) and anti-cleaved PARP (FIG. 6E, lower penal). […] Lysates were then spun at 14000 rpm for 10 min to remove insoluble material, resolved on 7.5% gel and probed with PARP antibodies. PARP was cleaved from the 116-kDa intact protein into 85-kDa and 40-kDa peptide products. To detect cleavage products of procaspase 7 and procaspase 9, whole cell extracts were resolved on 10% gel and probed with appropriate antibodies.

U266 cells = assay: Cell viability by MTT method; settings: U266, 24 h, different concentrations
Description: The results are shown as the mean (±s.d.) percent viability from triplicate cultures.
as §1

IKKα and IKKβ = assay: Western blot for total IKKα and IKKβ proteins in U266 cytoplasmic extracts; settings: U266 cells, curcumin 50 μM
Description: FIG. 3A: Level of phosphorylated IκBα determined by Western blotting. FIG. 3B: Immunoprecipitated IκB kinase and kinase assay of IκB kinase activity (upper panel) or Western blotting for the analysis of total IKKα and IKKβ proteins in cytoplasmic extracts (lower panel). FIG. 3C: IκB kinase was immunoprecipitated and kinase assay was performed in the absence or presence of the indicated concentrations of curcumin (upper panel). Lower panel indicates the amount of GST-IκBα protein stained with Coomassie Blue in each well in the same dried gel. To determine the total amount of IKK complex in each sample, […] of cytoplasmic protein was resolved on a 7.5% acrylamide gel and then electrotransferred to a nitrocellulose membrane. The membrane was blocked with 5% nonfat milk protein for 1 h and then incubated with either anti-IKKα or anti-IKKβ antibodies for 1 h. The membrane was then washed and treated with HRP-conjugated secondary anti-mouse IgG antibody and finally detected by chemiluminescence (Amersham Pharmacia Biotech, Arlington Heights, Ill.).

## COc1cc(/C=C/C(=O)CC(=O)/C=C/c2ccc(O)c(OC)c2)ccc1O [curcumin, diferuloylmethane]
[1]; patient #20, indicated concentrations, MTT
  cell survival: much more effective in inhibiting the survival of multiple myeloma cells than dexamethasone
[1]; patients #7, #9 and #10, different concentrations
  cell survival: decreased cell survival in a dose-dependent manner
Bcl-2
  time to lowest level (complete decline) of Bcl-2: ≤ 8 h
IκBα phosphorylation
  phosphorylated IκBα content: decreased rapidly
NF-κB
  constitutive NF-κB activation (nuclear localization): downregulated NF-κB
caspase-7
  activation of caspase-7 (disappearance of 35-kDa band): time-dependent activation
U266 cells
  cell viability / mitochondrial activity (MTT): suppressed mitochondrial activity; also recorded: decreased cell survival in a dose-dependent manner
IKKα and IKKβ
  protein levels of IκB kinase subunits IKKα and IKKβ: no significant change
